Reference: PubChem BioAssay (NCI)
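GI50: concentration for 50% inhibition of growth. The concentration for full growth arrest is given as TGI.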

Experiments:
Test in all cases: DTP human tumour cell line panel, 384-well format
OVCAR-4 ovarian = system: OVCAR-4 ovarian
UACC-62 melanoma = system: UACC-62 melanoma
PC-3 prostate = system: PC-3 prostate
KM12 colon = system: KM12 colon
A498 renal = system: A498 renal
MCF7 breast = system: MCF7 breast
SR leukemia = system: SR leukemia
NCI-H226 lung = system: NCI-H226 lung
HS 578T breast = system: HS 578T breast
MDA-MB-435 melanoma = system: MDA-MB-435 melanoma
SK-OV-3 ovarian = system: SK-OV-3 ovarian
ACHN renal = system: ACHN renal
NCI-H522 lung = system: NCI-H522 lung
TK-10 renal = system: TK-10 renal
HOP-92 NSCLC = system: HOP-92 NSCLC
NCI-H322M lung = system: NCI-H322M lung
SN12C renal = system: SN12C renal
OVCAR-5 ovarian = system: OVCAR-5 ovarian
SF-295 CNS = system: SF-295 CNS
MOLT-4 leukemia = system: MOLT-4 leukemia
MDA-MB-231 breast = system: MDA-MB-231 breast
NCI-H23 lung = system: NCI-H23 lung
DU-145 prostate = system: DU-145 prostate
HCC-2998 colon = system: HCC-2998 colon
SNB-75 CNS = system: SNB-75 CNS
LOX IMVI melanoma = system: LOX IMVI melanoma
HL-60(TB) leukemia = system: HL-60(TB) leukemia
M14 melanoma = system: M14 melanoma
IGROV1 ovarian = system: IGROV1 ovarian
U251 glioblastoma = system: U251 glioblastoma
HT29 colon = system: HT29 colon
HCT-116 colon = system: HCT-116 colon
NCI/ADR-RES ovarian = system: NCI/ADR-RES ovarian
COLO 205 colon = system: COLO 205 colon
A549 NSCLC = system: A549 NSCLC
UACC-257 melanoma = system: UACC-257 melanoma
CAKI-1 renal = system: CAKI-1 renal
BT-549 breast = system: BT-549 breast
OVCAR-3 ovarian = system: OVCAR-3 ovarian
RPMI-8226 leukemia = system: RPMI-8226 leukemia
SF-539 CNS = system: SF-539 CNS
HOP-62 NSCLC = system: HOP-62 NSCLC
SK-MEL-5 melanoma = system: SK-MEL-5 melanoma
SK-MEL-28 melanoma = system: SK-MEL-28 melanoma
HCT-15 colon = system: HCT-15 colon
T-47D breast = system: T-47D breast
MDA-MB-468 breast = system: MDA-MB-468 breast
EKVX NSCLC = system: EKVX NSCLC
RXF 393 renal = system: RXF 393 renal
OVCAR-8 ovarian = system: OVCAR-8 ovarian
SNB-19 CNS = system: SNB-19 CNS
MALME-3M melanoma = system: MALME-3M melanoma
NCI-H460 NSCLC = system: NCI-H460 NSCLC
SF-268 CNS = system: SF-268 CNS

O=C1Nc2ccc(CN3CCOC3=O)cc2/C1=C/c1cc(CN2CCOCC2)c[nH]1
GI50 (OVCAR-4 ovarian): 33.5 µM | TGI (OVCAR-4 ovarian): 93.3 µM | GI50 (UACC-62 melanoma): 45.1 µM | TGI (UACC-62 melanoma): > 100 µM | GI50 (PC-3 prostate): 35.3 µM | TGI (PC-3 prostate): 98.1 µM | GI50 (KM12 colon): 5.29 µM | TGI (KM12 colon): > 100 µM | GI50 (A498 renal): > 100 µM | TGI (A498 renal): > 100 µM | GI50 (MCF7 breast): 33.1 µM | TGI (MCF7 breast): > 100 µM | GI50 (SR leukemia): 14 µM | TGI (SR leukemia): 30.6 µM | GI50 (NCI-H226 lung): 33.3 µM | TGI (NCI-H226 lung): 83 µM | GI50 (HS 578T breast): 64.6 µM | TGI (HS 578T breast): > 100 µM | GI50 (MDA-MB-435 melanoma): 25.5 µM | TGI (MDA-MB-435 melanoma): 76.7 µM | GI50 (SK-OV-3 ovarian): 43.5 µM | TGI (SK-OV-3 ovarian): > 100 µM | GI50 (ACHN renal): 77.9 µM | TGI (ACHN renal): > 100 µM | GI50 (NCI-H522 lung): 21.6 µM | TGI (NCI-H522 lung): 55.2 µM | GI50 (TK-10 renal): 43.3 µM | TGI (TK-10 renal): > 100 µM | GI50 (HOP-92 NSCLC): > 100 µM | TGI (HOP-92 NSCLC): > 100 µM | GI50 (NCI-H322M lung): 43.7 µM | TGI (NCI-H322M lung): > 100 µM | GI50 (SN12C renal): 27.1 µM | TGI (SN12C renal): > 100 µM | GI50 (OVCAR-5 ovarian): > 100 µM | TGI (OVCAR-5 ovarian): > 100 µM | GI50 (SF-295 CNS): 33.8 µM | TGI (SF-295 CNS): > 100 µM | GI50 (MOLT-4 leukemia): 20.5 µM | TGI (MOLT-4 leukemia): 36.5 µM | GI50 (MDA-MB-231 breast): 58.8 µM | TGI (MDA-MB-231 breast): > 100 µM | GI50 (NCI-H23 lung): 25.2 µM | TGI (NCI-H23 lung): > 100 µM | GI50 (DU-145 prostate): 45.9 µM | TGI (DU-145 prostate): > 100 µM | GI50 (HCC-2998 colon): 30.1 µM | TGI (HCC-2998 colon): 68.1 µM | GI50 (SNB-75 CNS): 86 µM | TGI (SNB-75 CNS): > 100 µM | GI50 (LOX IMVI melanoma): 28.7 µM | TGI (LOX IMVI melanoma): 68.3 µM | GI50 (HL-60(TB) leukemia): 16.3 µM | TGI (HL-60(TB) leukemia): 30 µM | GI50 (M14 melanoma): 49 µM | TGI (M14 melanoma): > 100 µM | GI50 (IGROV1 ovarian): 43.4 µM | TGI (IGROV1 ovarian): > 100 µM | GI50 (U251 glioblastoma): 42.2 µM | TGI (U251 glioblastoma): > 100 µM | GI50 (HT29 colon): 30.4 µM | TGI (HT29 colon): > 100 µM | GI50 (HCT-116 colon): 41.2 µM | TGI (HCT-116 colon): > 100 µM | GI50 (NCI/ADR-RES ovarian): 30 µM | TGI (NCI/ADR-RES ovarian): 83.9 µM | GI50 (COLO 205 colon): 49.2 µM | TGI (COLO 205 colon): > 100 µM | GI50 (A549 NSCLC): 49.7 µM | TGI (A549 NSCLC): > 100 µM | GI50 (UACC-257 melanoma): 35.6 µM | TGI (UACC-257 melanoma): > 100 µM | GI50 (CAKI-1 renal): 58.5 µM | TGI (CAKI-1 renal): > 100 µM | GI50 (BT-549 breast): 24.5 µM | TGI (BT-549 breast): 58.9 µM | GI50 (OVCAR-3 ovarian): 40.3 µM | TGI (OVCAR-3 ovarian): > 100 µM | GI50 (RPMI-8226 leukemia): 18.2 µM | TGI (RPMI-8226 leukemia): 39.8 µM | GI50 (SF-539 CNS): 53.8 µM | TGI (SF-539 CNS): > 100 µM | GI50 (HOP-62 NSCLC): 31.6 µM | TGI (HOP-62 NSCLC): 75.9 µM | GI50 (SK-MEL-5 melanoma): 15.7 µM | TGI (SK-MEL-5 melanoma): 30.8 µM | GI50 (SK-MEL-28 melanoma): 71.8 µM | TGI (SK-MEL-28 melanoma): > 100 µM | GI50 (HCT-15 colon): 27.9 µM | TGI (HCT-15 colon): 93.1 µM | GI50 (T-47D breast): 17.5 µM | TGI (T-47D breast): 44 µM | GI50 (MDA-MB-468 breast): 23 µM | TGI (MDA-MB-468 breast): 85.1 µM | GI50 (EKVX NSCLC): 38.2 µM | TGI (EKVX NSCLC): > 100 µM | GI50 (RXF 393 renal): 96.3 µM | TGI (RXF 393 renal): > 100 µM | GI50 (OVCAR-8 ovarian): 37.8 µM | TGI (OVCAR-8 ovarian): > 100 µM | GI50 (SNB-19 CNS): 63.3 µM | TGI (SNB-19 CNS): > 100 µM | GI50 (MALME-3M melanoma): > 100 µM | TGI (MALME-3M melanoma): > 100 µM | GI50 (NCI-H460 NSCLC): 19.6 µM | TGI (NCI-H460 NSCLC): 40 µM | GI50 (SF-268 CNS): 49.9 µM | TGI (SF-268 CNS): > 100 µM
